pIC50, pKi: −log10 of the molar value. Several values for one entry are separate records, joined by “and”; a condition that tells them apart may be missing. Equal entries are not always repeated. Values belong to the compound of their own block, whether it stands above or below them.
How the values were obtained:
[1] = Inhibition of Plasmodium falciparum M18 aspartyl aminopeptidase assessed as inhibition constant
[2] = test system: Plasmodium falciparum; assay: Antimalarial activity against erythrocytic stage Plasmodium falciparum in human RBC assessed as inhibition of parasite growth at 10 uM incubated for 48 hrs by [3H]hypoxanthine incorporation assay relative to control; format: functional, Red blood cell; set-up: scale not given: the % may be the effect or the level left
[3] = test system: Plasmodium falciparum; assay: Antimalarial activity against erythrocytic stage Plasmodium falciparum in human RBC assessed as inhibition of parasite growth incubated for 48 hrs by [3H]hypoxanthine incorporation assay; format: functional, organism-based, Red blood cell; settings: Erythrocyte
[4] = test system: Plasmodium falciparum; assay: Antimalarial activity against Plasmodium falciparum 3D7 CQ-sensitive assessed as inhibition of growth by liquid scintillation counting method; format: functional, organism-based
[5] = Clearance in CD-1 mouse at 3 mg/kg, iv measured after 8 hrs hrs by UHPLC analysis; format: ADME, organism-based; settings: in vivo
[6] = test system: Plasmodium chabaudi; assay: In vivo antiplasmodial activity against Plasmodium chabaudi chabaudi 864VD infected in BALB/c mouse assessed as reducing parasitaemia at 12 to 24 mg/kg, ip administered for 3 days after infection and measured after 25 days Giemsa staining based microscopic analysis relative to control; format: functional; set-up: scale not given: the % may be the effect or the level left; settings: dose 12-24 mg/kg, time 25 day
[7] = Inhibition of recombinant Plasmodium falciparum A-M17 assessed as inhibition constant using leucine para-nitroanilide as substrate at 60 nM by spectrophotometer based method
[8] = test system: Plasmodium falciparum; assay: Antimalarial activity against Plasmodium falciparum chloroquine-resistant FcB1 Columbia assessed as inhibition of growth by liquid scintillation counting method; format: functional, organism-based
[9] = Inhibition of recombinant Plasmodium falciparum A-M1 assessed as inhibition constant using para-nitroanilide as substrate at 10 nM by spectrophotometer based method
[10] = Half life in CD-1 mouse at 3 mg/kg, iv measured after 8 hrs hrs by UHPLC analysis; format: ADME, organism-based; settings: in vivo
[11] = Inhibition of recombinant Plasmodium falciparum A-M17 assessed as inhibition constant using H-Leu-NHMec as substrate
[12] = test system: Plasmodium falciparum; assay: Antimalarial activity against Plasmodium falciparum D10 incubated for 48 hrs by [3H]hypoxanthine incorporation assay; format: functional, organism-based
[13] = Inhibition of recombinant Plasmodium falciparum A-M1 using Leu-pNA as substrate by microplate reader analysis
[14] = test system: Plasmodium falciparum; assay: Antimalarial activity against Plasmodium falciparum 3D7 CQ-sensitive incubated for 48 hrs by [3H]hypoxanthine incorporation assay based MicroBeta plate reader
[15] = test system: Plasmodium falciparum; assay: Antimalarial activity against multidrug resistant Plasmodium falciparum Dd2 incubated for 48 hrs by [3H]hypoxanthine incorporation assay based MicroBeta plate reader
[16] = test system: Plasmodium berghei; assay: In vivo antiplasmodial activity against Plasmodium berghei K173 infected in C57BL6 mouse assessed as mean survival time at 20 mg/kg, ip administered twice daily for 4 days after 2 hrs infection Giemsa staining based microscopic analysis relative to control; format: functional; settings: time 4 day
[17] = test system: Plasmodium yoelii; assay: In vivo antiplasmodial activity against Plasmodium yoelii 17X infected in C57BL6 mouse assessed as mean survival time at 20 mg/kg, ip administered twice daily for 4 days after 2 hrs infection Giemsa staining based microscopic analysis relative to control; format: functional; settings: time 4 day
[18] = test system: Plasmodium falciparum; assay: Antimalarial activity against multidrug resistant Plasmodium falciparum W2 assessed as reduction in proliferation incubated for 24 hrs; format: functional, organism-based; settings: W2, 24 h
[19] = test system: Plasmodium falciparum; assay: Antimalarial activity against Plasmodium falciparum NF54 wild-type assessed as reduction in proliferation incubated for 24 hrs by [3H]hypoxanthine incorporation assay; format: functional, organism-based
[20] = Binding affinity to Plasmodium falciparum recombinant MetAP2 by Dex-Fum-mediated mammalian three-hybrid assay
[21] = test system: Plasmodium falciparum; assay: Antimalarial activity against Plasmodium falciparum 3D7 incubated for 48 hrs by [3H]hypoxanthine incorporation assay; format: functional, organism-based
[22] = test system: Plasmodium chabaudi; assay: In vivo antiplasmodial activity against Plasmodium chabaudi chabaudi infected in C57/BL6J mouse assessed as reducing parasitaemia at 25 mg/kg, po administered for 4 days relative to control; format: functional; set-up: scale not given: the % may be the effect or the level left; settings: time 4 day
[23] = test system: Plasmodium chabaudi; assay: In vivo antiplasmodial activity against Plasmodium chabaudi chabaudi infected in C57/BL6J mouse assessed as reducing parasitaemia at 50 to 100 mg/kg, po administered for 4 days relative to control; format: functional; set-up: scale not given: the % may be the effect or the level left; settings: dose 50-100 mg/kg, time 4 day
[24] = test system: Plasmodium chabaudi; assay: In vivo antiplasmodial activity against Plasmodium chabaudi chabaudi infected in C57/BL6J mouse assessed as reducing parasitaemia at 50 mg/kg, po administered for 4 days relative to control; format: functional; set-up: scale not given: the % may be the effect or the level left; settings: time 4 day
[25] = test system: Plasmodium falciparum; assay: Antimalarial activity against Plasmodium falciparum K1 incubated for 48 hrs by [3H]hypoxanthine incorporation assay; format: functional, organism-based
[26] = Inhibition of Plasmodium falciparum alanyl aminopeptidase assessed as inhibition constant using H-Leu-NHMec as substrate by spectrofluorimeter based analysis
[27] = test system: Plasmodium chabaudi; assay: In vivo antiplasmodial activity against Plasmodium chabaudi chabaudi infected in C57/BL6J mouse assessed as reducing parasitaemia at 100 mg/kg, po administered for 4 days relative to control; format: functional; set-up: scale not given: the % may be the effect or the level left; settings: time 4 day

Structure (SMILES): N[C@@H](CCC(=O)O)P(=O)(O)O
- pKi [1]: 6.47

Structure (SMILES): Oc1ccc(CCNc2c3ccccc3nc3ccccc23)cc1O
- Activity [2]: 96%
- pIC50 [3]: 5.89

Structure (SMILES): NC1CCc2cccc(-c3ccccc3)c2CC1=O (stereo unspecified)
- pIC50 [4]: 4.95
- clearance [5]: 43 mL/min/kg
- Activity [6]: 40%
- pKi [7]: < 4.00
- pIC50 [8]: 5.19
- pKi [9]: 7.30
- half-life [10]: 2.2 h

Structure (SMILES): Cc1nc(-c2ccccn2)nc(NCCc2ccccc2)c1Cl
- pIC50 [14]: 5.80
- pIC50 [15]: 6.05
- Activity [16]: 60%
- Activity [17]: 80%

Structure (SMILES): CO[C@]12C(=O)CC[C@@]1(CO)[C@H]2[C@@]1(C)O[C@@H]1CC=C(C)C
- pIC50 [18]: 6.57
- pIC50 [19]: 6.80
- pIC50 [20]: 3.94

Structure (SMILES): NC(CCc1ccccc1)P(=O)(O)CC(Cc1ccc(O)cc1)C(=O)O (stereo unspecified)
- pKi [26]: 6.63

Structure (SMILES): CO[C@H]1[C@H](C2(C)O[C@@H]2CC=C(C)C)[C@]2(CC[C@H]1OC(=O)NC(=O)CCl)CO2 (single isomer, unassigned)
- pIC50 [18]: 8.52
- pIC50 [19]: 8.70
- pIC50 [20]: 5.70

Structure (SMILES): CN1CCc2cccc3c2[C@@H]1Cc1ccc(O)c(O)c1-3 [(S)APOMORPHINE]
- Activity [2]: 87%
- pIC50 [3]: 5.40

The next lines start with results.

- pIC50 [12]: 5.10
Structure (SMILES): CC(C)C[C@H](NC(=O)[C@@H](O)[C@H](N)Cc1ccc([N+](=O)[O-])cc1)C(=O)O
- pKi [11]: 8.57

- pIC50 [13]: 6.07
Structure (SMILES): CC(C)CN(CCCN1CCN(CCCNc2ccnc3cc(Cl)ccc23)CC1)C(=O)CC(=O)NO

- pIC50 [21]: 5.70
Structure (SMILES): CO[C@H](C(=O)NO)[C@@H](CC(C)C)C(=O)N[C@H](C(=O)O)c1ccccc1
- pKi [11]: 4.60 and 4.59

- pIC50 [25]: 6.42
- pIC50 [21]: 6.43
Structure (SMILES): CO[C@H](C(=O)NO)[C@@H](CC(C)C)C(=O)N[C@H](C(=O)OC1CCCC1)c1ccccc1
- Activity [22]: 43%
- pKi [11]: 4.12
- Activity [23]: 66%
- Activity [24]: 52%

- pIC50 [13]: 4.68
Structure (SMILES): NCCC(=O)N(CCCN1CCN(CCCNc2ccnc3cc(Cl)ccc23)CC1)CC1CC1

- pIC50 [13]: 5.60
Structure (SMILES): CC(C)CN(CCCN1CCN(CCCNc2ccnc3cc(Cl)ccc23)CC1)C(=O)C(N)C(=O)NO (stereo unspecified)

- pIC50 [12]: 4.69
Structure (SMILES): COC(=O)[C@H](CC(C)C)NC(=O)[C@@H](O)[C@H](N)Cc1ccccc1 [BESTATIN METHYL ESTER]
- pKi [11]: 6.86

- pIC50 [12]: 4.83
- pIC50 [21]: 5.30
Structure (SMILES): CC(C)C[C@H](NC(=O)[C@@H](O)[C@H](N)Cc1ccccc1)C(=O)O [UBENIMEX]
- Activity [27]: 34%
